Our source for the LD50 values is ChEMBL document CHEMBL3045016, “Insecticidal compounds from the essential oil of Chinese medicinal herb Atractylodes chinensis” (2011).

The assay has as its system Drosophila melanogaster. The experiment in a line: Insecticidal activity against wild type Drosophila melanogaster L. assessed as mortality compound topically applied dorsally to the thorax at 23 to 25 25 degC, 60 to 70%RH measured per adult after 3 hr. In kind it is functional.
As to `C=C[C@]1(C)CC[C@@H](C(C)(C)O)C[C@H]1C(=C)C` [ALPHA-ELEMOL], the LD50 turned out to be 0.65 µg. Consider `C=C1CCC[C@]2(C)Cc3occ(C)c3C[C@@H]12` [ATRACTYLON], for which the LD50 was 1.43 µg. For `C=C1CCC[C@]2(C)CC[C@@H](C(C)(C)O)C[C@@H]12` [BETA-EUDESMOL], the LD50 worked out at 2.63 µg. `C=C(C)[C@@H]1CC[C@@]2(C)CCCC(=C)[C@@H]2C1` [BETA-SELINENE]: the LD50 worked out at 0.55 µg. In the case of `CC1=CCC[C@H](C)[C@@]12CC[C@@H](C(C)(C)O)C2` [HINESOL] it was 0.71 µg.
